# Measured values: patent publication US7521458B2, “Spiropiperidylrifamycins for the treatment of mycobacterial infections” (priority 2004, dated 2009)
# Like-named read-outs stand apart in the source and are kept apart here.
# How the values were obtained:
# Format in all cases: cell-based
# [1] = system: Mycobacterium tuberculosis multiresistant 17 strains assayed; conditions: for % Sensitivity: 17 strains; for n° (sensitive strains): of 17 strains
# [2] = system: multiresistant Mycobacterium tuberculosis; test: microbe, parasite or virus in culture; conditions: for sensitivity (of strains): concentration of about 1 μg/ml, all strains of Example 34; for antimycobacterial activity compared with rifampicin and rifabutin: in vitro, in words; for MIC: Mycobacterium tuberculosis
# [3] = system: Mycobacterium tuberculosis 4 strains assayed; conditions: for % Sensitivity: 4 strains; for n° (sensitive strains): of 4 strains
# [4] = concentration analized 0.1 μg/ml
# [5] = concentration analized 0.5 μg/ml
Compound,"% Sensitivity [1, 4] [%]","n° (sensitive strains) [1, 4]","% Sensitivity [1, 5] [%]","n° (sensitive strains) [1, 5]",% Sensitivity ([1]; concentration analized 1 μg/ml) [%],n° (sensitive strains) ([1]; concentration analized 1 μg/ml),sensitivity (of strains) [2],antimycobacterial activity compared with rifampicin and rifabutin [2],"% Sensitivity [3, 4] [%]","n° (sensitive strains) [3, 4]","% Sensitivity [3, 5] [%]","n° (sensitive strains) [3, 5]",% Sensitivity ([3]; concentration analized 1 μg/ml) [%],n° (sensitive strains) ([3]; concentration analized 1 μg/ml),Sensitivity of strains (S/R) ([1]; concentration analized 0.2 μg/ml),MIC [2] [µg/mL],Sensitivity of strains (S/R) ([1]; concentration analized 1 μg/ml),Sensitivity of strains (S/R) ([3]; concentration analized 1 μg/ml)
"4-deoxo-3,4-[(2R)-2-spiro[2,6-bis(4-fluorophenyl)-4-piperidil]-2,5-dihydro-1H-imidazo]rifamycin S [RFA 5M]",17,3,82,14,100,17,about 100%,much superior to rifampicin and to rifabutin,25,1,50,2,100,4,,,,
"CO[C@H]1/C=C/O[C@@]2(C)Oc3c(C)c(O)c4c(c3C2=O)C2=NC3(CCN(CC(C)C)CC3)NC2=C(NC(=O)/C(C)=C\C=C\[C@H](C)[C@H](O)[C@@H](C)[C@@H](O)[C@@H](C)[C@H](OC(C)=O)[C@@H]1C)C4=O [RFB, rifabutin]",,,,,,,about 14.3%,,,,,,,,,,,
"4-deoxo-3,4-[(2R)-2-spiro(2,6-diphenyl-4-piperidyl)-2,5-dihydro-1H-imidazo]rifamycin S [RFA 3M]",23,4,75,13,94,16,about 95.2%,much superior to rifampicin and to rifabutin,25,1,50,2,100,4,,,,
"NNC(=O)c1ccncc1 [IZ, isoniazid]",,,,,,,,,,,,,,,R (R means resistent),> 256,,
"CO[C@H]1/C=C/O[C@@]2(C)Oc3c(C)c(O)c4c(O)c(c(/C=N/N5CCN(C)CC5)c(O)c4c3C2=O)NC(=O)/C(C)=C\C=C\[C@H](C)[C@H](O)[C@@H](C)[C@@H](O)[C@@H](C)[C@H](OC(C)=O)[C@@H]1C [RI, rifampicin]",,,,,,,,,,,,,,,,> 256,R (R means resistent),R (R means resistent)
